Experimental data as given in patent publication US10835533B2, “1 -((3S,4R)-4-(3-fluorophenyl)-1-(2-methoxyethyl)pyrrolidin-3-yl)-3-(4-methyl-3-(2-methylpyrimidin-5-yl)-1-phenyl-1H-pyrazol-5-yl)urea as a TrkA kinase inhibitor” (Array BioPharma Inc., priority 2014, dated 2020).

Assays:
Assay in all cases: KinaseProfiler kinase profiling
Format in all cases: biochemical
Conditions in all cases: 10 μM, ATP near Km
MINK = biological target: T1, MINK (Homo sapiens, UniProt Q8N4C8)
T1 construct: purchased Millipore, Inc. (KinaseProfiler service)
Protocol: (§1) Compound 1 was tested for off-target kinase activity at a concentration of 10 μM by Millipore, Inc. in their KinaseProfiler™ service against all the kinases available in their full kinase panel. Compound 1 was run in duplicate at a concentration of ATP near the Km for each individual kinase according to Millipore's specifications. Data are reported as percent of control (POC) and are the average of the two replicates.

TNK2 = biological target: T2, TNK2 (Homo sapiens, UniProt Q07912)
T2 construct: purchased Millipore, Inc. (KinaseProfiler service)
Protocol: as §1

eEF-2K = biological target: T3, eEF-2K (Homo sapiens, UniProt O00418)
T3 construct: purchased Millipore, Inc. (KinaseProfiler service)
Protocol: as §1

CK1gamma1 = biological target: T4, CK1gamma1 (Homo sapiens, UniProt Q9HCP0)
T4 construct: purchased Millipore, Inc. (KinaseProfiler service)
Protocol: as §1

Flt1 = biological target: T5, Flt1 (Homo sapiens, UniProt P17948)
T5 construct: purchased Millipore, Inc. (KinaseProfiler service)
Protocol: as §1

DAPK3 = biological target: T6, DAPK3 (Homo sapiens, UniProt O43293)
T6 construct: purchased Millipore, Inc. (KinaseProfiler service)
Protocol: as §1

BrSK1 = biological target: T7, BrSK1 (Homo sapiens, UniProt Q8TDC3)
T7 construct: purchased Millipore, Inc. (KinaseProfiler service)
Protocol: as §1

Fgr = biological target: T8, Fgr (Homo sapiens, UniProt P09769)
T8 construct: purchased Millipore, Inc. (KinaseProfiler service)
Protocol: as §1

CDK9/cyclinT1 = biological target: T9, CDK9/cyclinT1 (Homo sapiens, UniProt P50750)
T9 construct: purchased Millipore, Inc. (KinaseProfiler service)
Protocol: as §1

CK2alpha2 = biological target: T10, CK2alpha2 (Homo sapiens, UniProt P19784)
T10 construct: purchased Millipore, Inc. (KinaseProfiler service)
Protocol: as §1

CDK1/cyclinB = biological target: T11, CDK1/cyclinB (Homo sapiens, UniProt P06493)
T11 construct: purchased Millipore, Inc. (KinaseProfiler service)
Protocol: as §1

HIPK1 = biological target: T12, HIPK1 (Homo sapiens, UniProt Q86Z02)
T12 construct: purchased Millipore, Inc. (KinaseProfiler service)
Protocol: as §1

CK1gamma2 = biological target: T13, CK1gamma2 (Homo sapiens, UniProt P78368)
T13 construct: purchased Millipore, Inc. (KinaseProfiler service)
Protocol: as §1

Rse = biological target: T14, Rse (Homo sapiens, UniProt Q06418)
T14 construct: purchased Millipore, Inc. (KinaseProfiler service)
Protocol: as §1

EphA2 = biological target: T15, EphA2 (Homo sapiens, UniProt P29317)
T15 construct: purchased Millipore, Inc. (KinaseProfiler service)
Protocol: as §1

MAP3K5 = biological target: T16, MAP3K5 (Homo sapiens, UniProt Q99683)
T16 construct: purchased Millipore, Inc. (KinaseProfiler service)
Protocol: as §1

EphA4 = biological target: T17, EphA4 (Homo sapiens, UniProt P54764)
T17 construct: purchased Millipore, Inc. (KinaseProfiler service)
Protocol: as §1

MELK = biological target: T18, MELK (Homo sapiens, UniProt Q14680)
T18 construct: purchased Millipore, Inc. (KinaseProfiler service)
Protocol: as §1

MRCKalpha = biological target: T19, MRCKalpha (Homo sapiens, UniProt Q5VT25)
T19 construct: purchased Millipore, Inc. (KinaseProfiler service)
Protocol: as §1

Tie2 = biological target: T20, Tie2 (Homo sapiens, UniProt Q02763)
T20 construct: purchased Millipore, Inc. (KinaseProfiler service)
Protocol: as §1

IGF-1R Activated = biological target: T21, IGF-1R Activated (Homo sapiens, UniProt P08069)
T21 construct: purchased Millipore, Inc. (KinaseProfiler service)
Protocol: as §1

mTOR/FKBP12 = biological target: T22, mTOR/FKBP12 (Homo sapiens, UniProt P42345)
T22 construct: purchased Millipore, Inc. (KinaseProfiler service)
Protocol: as §1

MEK1 = biological target: T23, MEK1 (Homo sapiens, UniProt Q02750)
T23 construct: purchased Millipore, Inc. (KinaseProfiler service)
Protocol: as §1

PKD2 = biological target: T24, PKD2 (Homo sapiens, UniProt Q9BZL6)
T24 construct: purchased Millipore, Inc. (KinaseProfiler service)
Protocol: as §1

Src = biological target: T25, Src (Homo sapiens, UniProt P12931)
T25 construct: purchased Millipore, Inc. (KinaseProfiler service)
Protocol: as §1

PKCgamma = biological target: T26, PKCgamma (Homo sapiens, UniProt P05129)
T26 construct: purchased Millipore, Inc. (KinaseProfiler service)
Protocol: as §1

FAK = biological target: T27, FAK (Homo sapiens, UniProt Q05397)
T27 construct: purchased Millipore, Inc. (KinaseProfiler service)
Protocol: as §1

ERK2 = biological target: T28, ERK2 (Homo sapiens, UniProt P28482)
T28 construct: purchased Millipore, Inc. (KinaseProfiler service)
Protocol: as §1

MST3 = biological target: T29, MST3 (Homo sapiens, UniProt Q9Y6E0)
T29 construct: purchased Millipore, Inc. (KinaseProfiler service)
Protocol: as §1

PTK6 = biological target: T30, PTK6 (Homo sapiens, UniProt Q13882)
T30 construct: purchased Millipore, Inc. (KinaseProfiler service)
Protocol: as §1

IRR = biological target: T31, IRR (Homo sapiens, UniProt P14616)
T31 construct: purchased Millipore, Inc. (KinaseProfiler service)
Protocol: as §1

GSK3alpha = biological target: T32, GSK3alpha (Homo sapiens, UniProt P49840)
T32 construct: purchased Millipore, Inc. (KinaseProfiler service)
Protocol: as §1

CAMK1d = biological target: T33, CAMK1d (Homo sapiens, UniProt Q8IU85)
T33 construct: purchased Millipore, Inc. (KinaseProfiler service)
Protocol: as §1

SGK1 = biological target: T34, SGK1 (Homo sapiens, UniProt O00141)
T34 construct: purchased Millipore, Inc. (KinaseProfiler service)
Protocol: as §1

TBK1 = biological target: T35, TBK1 (Homo sapiens, UniProt Q9UHD2)
T35 construct: purchased Millipore, Inc. (KinaseProfiler service)
Protocol: as §1

TrkA = biological target: T36, TrkA (Homo sapiens, UniProt P04629)
T36 construct: purchased Millipore, Inc. (KinaseProfiler service)
Protocol: as §1

Plk1 = biological target: T37, Plk1 (Homo sapiens, UniProt P53350)
T37 construct: purchased Millipore, Inc. (KinaseProfiler service)
Protocol: as §1

MKNK2 = biological target: T38, MKNK2 (Homo sapiens, UniProt Q9HBH9)
T38 construct: purchased Millipore, Inc. (KinaseProfiler service)
Protocol: as §1

AKT2 = biological target: T39, AKT2 (Homo sapiens, UniProt P31751)
T39 construct: purchased Millipore, Inc. (KinaseProfiler service)
Protocol: as §1

CDK2/cyclinA = biological target: T40, CDK2/cyclinA (Homo sapiens, UniProt P24941)
T40 construct: purchased Millipore, Inc. (KinaseProfiler service)
Protocol: as §1

CAMK1 = biological target: T41, CAMK1 (Homo sapiens, UniProt Q14012)
T41 construct: purchased Millipore, Inc. (KinaseProfiler service)
Protocol: as §1

T10 sequence (P19784 whole entry): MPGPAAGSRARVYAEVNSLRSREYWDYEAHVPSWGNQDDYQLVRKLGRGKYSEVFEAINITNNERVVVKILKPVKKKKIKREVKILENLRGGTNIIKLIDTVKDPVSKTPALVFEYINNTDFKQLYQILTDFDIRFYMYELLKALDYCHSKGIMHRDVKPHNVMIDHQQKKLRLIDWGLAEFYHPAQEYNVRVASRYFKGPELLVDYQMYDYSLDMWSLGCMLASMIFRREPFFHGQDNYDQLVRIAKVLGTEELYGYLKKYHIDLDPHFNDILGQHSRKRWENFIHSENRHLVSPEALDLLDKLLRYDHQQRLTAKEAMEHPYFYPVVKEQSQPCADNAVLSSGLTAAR
T15 sequence (P29317 24-976): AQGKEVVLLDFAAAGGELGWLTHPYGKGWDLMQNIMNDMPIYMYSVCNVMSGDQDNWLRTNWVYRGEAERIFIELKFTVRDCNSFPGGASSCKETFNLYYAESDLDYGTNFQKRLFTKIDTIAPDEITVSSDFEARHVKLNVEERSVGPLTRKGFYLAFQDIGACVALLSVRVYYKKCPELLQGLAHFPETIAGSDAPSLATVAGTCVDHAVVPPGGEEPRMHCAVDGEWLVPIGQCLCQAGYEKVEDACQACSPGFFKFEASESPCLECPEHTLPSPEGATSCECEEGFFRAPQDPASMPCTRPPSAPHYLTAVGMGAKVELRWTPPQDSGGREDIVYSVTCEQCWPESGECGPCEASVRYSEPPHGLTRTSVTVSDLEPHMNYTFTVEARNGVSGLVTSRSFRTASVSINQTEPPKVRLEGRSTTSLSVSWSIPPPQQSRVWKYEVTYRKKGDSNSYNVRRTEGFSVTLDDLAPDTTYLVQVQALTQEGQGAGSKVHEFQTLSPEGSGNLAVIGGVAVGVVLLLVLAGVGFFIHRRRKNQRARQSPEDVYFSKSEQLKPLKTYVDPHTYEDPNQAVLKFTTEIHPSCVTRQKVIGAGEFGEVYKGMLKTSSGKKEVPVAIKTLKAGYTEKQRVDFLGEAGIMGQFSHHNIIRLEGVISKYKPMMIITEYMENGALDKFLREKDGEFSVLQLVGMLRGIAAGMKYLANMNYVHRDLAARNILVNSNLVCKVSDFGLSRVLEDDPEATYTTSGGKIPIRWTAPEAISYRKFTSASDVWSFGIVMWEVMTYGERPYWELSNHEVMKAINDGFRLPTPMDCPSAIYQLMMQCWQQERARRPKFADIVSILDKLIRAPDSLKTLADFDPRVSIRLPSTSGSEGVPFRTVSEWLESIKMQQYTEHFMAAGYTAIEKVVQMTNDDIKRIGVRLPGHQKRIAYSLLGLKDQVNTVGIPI
T33 sequence (Q8IU85 whole entry): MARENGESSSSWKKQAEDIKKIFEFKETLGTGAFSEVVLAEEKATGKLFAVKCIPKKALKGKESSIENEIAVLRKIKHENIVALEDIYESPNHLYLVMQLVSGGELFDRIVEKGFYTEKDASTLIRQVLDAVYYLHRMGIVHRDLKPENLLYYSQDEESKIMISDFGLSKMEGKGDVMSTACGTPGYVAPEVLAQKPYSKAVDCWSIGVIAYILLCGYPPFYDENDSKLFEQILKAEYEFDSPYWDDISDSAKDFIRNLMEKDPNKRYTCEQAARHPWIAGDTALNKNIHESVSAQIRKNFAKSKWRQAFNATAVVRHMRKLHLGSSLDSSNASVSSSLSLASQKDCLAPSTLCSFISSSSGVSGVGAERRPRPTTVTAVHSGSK
T34 sequence (O00141 whole entry): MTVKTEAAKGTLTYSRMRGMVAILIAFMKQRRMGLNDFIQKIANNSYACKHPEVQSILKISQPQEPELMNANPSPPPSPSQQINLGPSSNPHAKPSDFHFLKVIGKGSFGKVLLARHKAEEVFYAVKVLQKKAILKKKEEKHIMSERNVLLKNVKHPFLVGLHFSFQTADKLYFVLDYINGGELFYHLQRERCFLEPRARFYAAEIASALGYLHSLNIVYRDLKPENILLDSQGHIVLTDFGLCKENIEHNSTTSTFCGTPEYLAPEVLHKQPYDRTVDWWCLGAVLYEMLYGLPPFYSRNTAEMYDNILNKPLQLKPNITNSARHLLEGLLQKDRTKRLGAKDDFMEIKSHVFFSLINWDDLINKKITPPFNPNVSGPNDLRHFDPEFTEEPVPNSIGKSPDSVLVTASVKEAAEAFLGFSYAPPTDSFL
T16 sequence (Q99683 whole entry): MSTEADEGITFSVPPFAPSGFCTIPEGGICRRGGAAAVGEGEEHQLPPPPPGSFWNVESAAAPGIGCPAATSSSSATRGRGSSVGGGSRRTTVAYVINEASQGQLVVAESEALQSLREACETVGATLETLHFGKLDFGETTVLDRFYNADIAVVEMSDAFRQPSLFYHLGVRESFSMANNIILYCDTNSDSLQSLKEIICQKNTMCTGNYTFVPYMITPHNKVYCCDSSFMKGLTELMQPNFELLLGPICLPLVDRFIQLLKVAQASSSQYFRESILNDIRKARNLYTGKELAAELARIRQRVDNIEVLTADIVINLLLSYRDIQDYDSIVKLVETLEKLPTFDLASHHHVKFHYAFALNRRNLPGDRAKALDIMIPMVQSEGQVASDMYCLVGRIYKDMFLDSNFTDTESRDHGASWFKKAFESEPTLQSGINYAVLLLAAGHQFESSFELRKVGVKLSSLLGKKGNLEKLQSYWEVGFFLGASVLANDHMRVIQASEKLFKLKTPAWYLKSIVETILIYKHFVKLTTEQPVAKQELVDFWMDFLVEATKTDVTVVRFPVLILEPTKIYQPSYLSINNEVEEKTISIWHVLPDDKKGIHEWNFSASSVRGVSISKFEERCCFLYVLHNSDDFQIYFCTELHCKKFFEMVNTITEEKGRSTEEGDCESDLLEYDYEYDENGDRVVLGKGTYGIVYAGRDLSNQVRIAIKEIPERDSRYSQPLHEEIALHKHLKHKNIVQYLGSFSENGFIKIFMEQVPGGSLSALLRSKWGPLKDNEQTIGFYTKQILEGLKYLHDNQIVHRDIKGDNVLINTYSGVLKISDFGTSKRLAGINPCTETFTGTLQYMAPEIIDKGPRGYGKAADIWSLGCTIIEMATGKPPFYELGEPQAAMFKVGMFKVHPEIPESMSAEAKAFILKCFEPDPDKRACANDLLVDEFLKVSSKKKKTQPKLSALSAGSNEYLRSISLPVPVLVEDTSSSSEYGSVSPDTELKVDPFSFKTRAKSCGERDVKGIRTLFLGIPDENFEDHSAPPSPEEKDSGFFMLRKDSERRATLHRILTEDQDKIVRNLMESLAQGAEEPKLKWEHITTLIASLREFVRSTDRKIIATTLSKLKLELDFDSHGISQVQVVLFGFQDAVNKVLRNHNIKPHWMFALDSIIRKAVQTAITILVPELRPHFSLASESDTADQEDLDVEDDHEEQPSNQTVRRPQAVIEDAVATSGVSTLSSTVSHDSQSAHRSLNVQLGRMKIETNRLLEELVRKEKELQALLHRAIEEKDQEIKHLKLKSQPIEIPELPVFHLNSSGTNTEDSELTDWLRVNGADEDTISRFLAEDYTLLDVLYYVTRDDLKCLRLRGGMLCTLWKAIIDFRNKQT
T20 sequence (Q02763 23-1124): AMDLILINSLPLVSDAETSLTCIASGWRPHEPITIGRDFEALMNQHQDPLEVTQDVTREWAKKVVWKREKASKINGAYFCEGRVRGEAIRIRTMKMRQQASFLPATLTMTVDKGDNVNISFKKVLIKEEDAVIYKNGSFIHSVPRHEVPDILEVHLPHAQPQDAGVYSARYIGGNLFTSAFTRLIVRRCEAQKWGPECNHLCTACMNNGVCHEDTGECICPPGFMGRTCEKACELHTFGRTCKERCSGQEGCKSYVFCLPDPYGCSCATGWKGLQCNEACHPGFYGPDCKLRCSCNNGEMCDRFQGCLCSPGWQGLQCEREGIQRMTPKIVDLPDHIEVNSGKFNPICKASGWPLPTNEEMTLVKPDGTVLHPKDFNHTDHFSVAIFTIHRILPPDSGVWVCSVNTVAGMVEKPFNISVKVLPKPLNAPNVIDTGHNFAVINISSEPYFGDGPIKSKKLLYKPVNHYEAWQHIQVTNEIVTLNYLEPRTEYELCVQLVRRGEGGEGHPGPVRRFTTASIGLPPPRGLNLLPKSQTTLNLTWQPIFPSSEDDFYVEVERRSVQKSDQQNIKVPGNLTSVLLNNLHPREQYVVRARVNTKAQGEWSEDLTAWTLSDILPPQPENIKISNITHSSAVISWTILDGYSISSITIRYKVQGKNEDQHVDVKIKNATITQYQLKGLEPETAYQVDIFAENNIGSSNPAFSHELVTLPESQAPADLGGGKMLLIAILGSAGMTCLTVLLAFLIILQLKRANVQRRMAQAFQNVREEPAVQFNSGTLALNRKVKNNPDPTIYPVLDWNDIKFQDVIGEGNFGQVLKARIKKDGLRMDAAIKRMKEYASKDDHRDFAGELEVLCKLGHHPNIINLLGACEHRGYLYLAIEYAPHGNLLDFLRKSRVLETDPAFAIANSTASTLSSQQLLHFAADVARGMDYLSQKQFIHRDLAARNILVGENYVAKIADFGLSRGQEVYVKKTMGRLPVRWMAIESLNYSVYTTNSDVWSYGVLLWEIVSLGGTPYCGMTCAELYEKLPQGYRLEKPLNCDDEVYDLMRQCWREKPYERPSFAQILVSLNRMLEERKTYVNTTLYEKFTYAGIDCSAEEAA
T29 sequence (Q9Y6E0 whole entry): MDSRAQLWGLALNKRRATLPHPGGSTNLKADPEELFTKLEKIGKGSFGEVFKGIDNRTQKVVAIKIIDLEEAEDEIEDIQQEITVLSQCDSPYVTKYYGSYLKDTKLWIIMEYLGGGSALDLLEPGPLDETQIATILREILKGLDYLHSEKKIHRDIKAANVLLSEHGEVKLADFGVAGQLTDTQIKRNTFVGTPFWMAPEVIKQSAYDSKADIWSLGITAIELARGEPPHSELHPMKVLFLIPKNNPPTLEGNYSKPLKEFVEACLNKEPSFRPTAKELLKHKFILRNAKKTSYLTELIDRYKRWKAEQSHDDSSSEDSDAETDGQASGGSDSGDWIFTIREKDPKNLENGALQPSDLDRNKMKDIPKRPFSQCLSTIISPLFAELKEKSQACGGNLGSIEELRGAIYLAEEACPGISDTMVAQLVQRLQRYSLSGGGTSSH

## COCCN1C[C@@H](NC(=O)Nc2c(C)c(-c3cnc(C)nc3)nn2-c2ccccc2)[C@H](c2cccc(F)c2)C1 [Compound 1, 1-((3S,4R)-4-(3-fluorophenyl)-1-(2-methoxyethyl)pyrrolidin-3-yl)-3-(4-methyl-3-(2-methylpyrimidin-5-yl)-1-phenyl-1H-pyrazol-5-yl)urea]
MINK
  Avg POC: 105 POC
TNK2
  Avg POC: 93.5 POC
eEF-2K
  Avg POC: 112.5 POC
CK1gamma1
  Avg POC: 78.5 POC
Flt1
  Avg POC: 97 POC
DAPK3
  Avg POC: 105.5 POC
BrSK1
  Avg POC: 98 POC
Fgr
  Avg POC: 106 POC
CDK9/cyclinT1
  Avg POC: 112 POC
CK2alpha2
  Avg POC: 106 POC
CDK1/cyclinB
  Avg POC: 108 POC
HIPK1
  Avg POC: 98.5 POC
CK1gamma2
  Avg POC: 61.5 POC
Rse
  Avg POC: 102.5 POC
EphA2
  Avg POC: 92.5 POC
MAP3K5
  Avg POC: 101 POC
EphA4
  Avg POC: 98 POC
MELK
  Avg POC: 105.5 POC
MRCKalpha
  Avg POC: 90.5 POC
Tie2
  Avg POC: 82 POC
IGF-1R Activated
  Avg POC: 105 POC
mTOR/FKBP12
  Avg POC: 105.5 POC
MEK1
  Avg POC: 103.5 POC
PKD2
  Avg POC: 94.5 POC
Src
  Avg POC: 120 POC
PKCgamma
  Avg POC: 98 POC
FAK
  Avg POC: 100.5 POC
ERK2
  Avg POC: 100 POC
MST3
  Avg POC: 103.5 POC
PTK6
  Avg POC: 106 POC
IRR
  Avg POC: 104.5 POC
GSK3alpha
  Avg POC: 109.5 POC
CAMK1d
  Avg POC: 130 POC
SGK1
  Avg POC: 105 POC
TBK1
  Avg POC: 114.5 POC
TrkA
  Avg POC: 2.5 POC
Plk1
  Avg POC: 99.5 POC
MKNK2
  Avg POC: 111 POC
AKT2
  Avg POC: 104.5 POC
CDK2/cyclinA
  Avg POC: 94.5 POC
CAMK1
  Avg POC: 104.5 POC
